Source: US20200178542A9, “CONTROL OF PESTS IN COTTON BY G[…] BILOBALIDES” (priority 2015, published 2020)
Read-outs that look alike come from different tables or passages of the source.

How the values were obtained:
Nezara viridula = assay: Foliar spray of cotton plants, infestation with Nezara viridula, mortality after three days (Example-1); format: in vivo; conditions: for mortality at 100 ppm: Nezara viridula, foliar, 72 h
Description: Cotton plants were grown to growth stage BBCH 12. The cotton plants were then sprayed with 300 l/ha of aqueous compositions comprising either no component of the ginkgo tree, 300 ppm of ginkgolide A, or 100 ppm of bilobalide. The plants were then infested with five insects (either adult, or 4th instar nymphs) of Nezara viridula insects. Insects were contained on the plant using mesh organza bags. Three replicate measurement on different plants were made for each measurement. Three days after infestation, the number of live and dead insects was determined. The mean mortality values were gathered in Table D.

Euschistus heros = assay: Spray of cotton seedlings, infestation with adults of Euschistus heros, alive insects and Abbott relative efficacy (Example-2, Example-3); format: in vivo; conditions: for Relative Efficacy 1DAI / Relative Efficacy 3DAI: Abbott's formula; for No of alive insects 1DAI / No of alive insects 3DAI: ten adults per plant, mean of 4 replicates
Description: Relative efficacy (E) values were calculated according to Abbot's formula
C is the number of alive insects in untreated controls, and G is the number of alive insects in plants treated with components of the ginkgo tree.
Fibermax™ LibertyLink™ cotton, and Bollgard II™ cotton seedlings were sprayed with 2 ml of compositions comprising either no component of the ginkgo tree, or bilobalide at a concentration of 150 ppm, or 100 ppm. Plants were allowed to dry and subsequently infested with ten adults of Euschistus heros. Four replicate measurement on different plants were made for each measurement. One day after infestation (1 DAI), and three days after infestation (3 DAI) the number of live and dead insects was determined. The mean number of alive insects, as well as the relative efficacy values (E) according to Abbott's formula were gathered in Table E, wherein the number of alive insects in untreated controls (C) was the value of the same plant without the application of bilobalide.
The experiment as described in Example-2 was repeated with ginkgolide A in a concentration of 250 ppm. […] The mean number of alive insects, as well as the relative efficacy values (E) according to Abbott's formula were gathered in Table F, wherein the number of alive insects in untreated controls (C) was the value of the same plant without the application of ginkgolide A.

[1] = Fibermax LibertyLink cotton, 250 ppm
[2] = Fibermax LibertyLink cotton, 100 ppm
[3] = Fibermax LibertyLink cotton, 150 ppm

C[C@@H]1C(=O)O[C@H]2C[C@@]34[C@H]5C[C@@H](C(C)(C)C)[C@]36[C@@H](OC(=O)[C@@H]6O)O[C@@]4(C(=O)O5)[C@]21O [Ginkgolide A]
Mortality of 4th instar nymphs (Nezara viridula; N. viridula 4th instar nymphs on cotton (BBCH 12), 300 ppm, 300 l/ha spray, three days after infestation, mean of 3 replicates): 78.6% | Mortality of Adults (Nezara viridula; N. viridula adults on cotton (BBCH 12), 300 ppm, 300 l/ha spray, three days after infestation, mean of 3 replicates): 93.3% | Relative Efficacy 1DAI (Euschistus heros; Bollgard II cotton, 250 ppm): 5% | No of alive insects 1DAI (Euschistus heros; Bollgard II cotton, 250 ppm): 9.5 | Relative Efficacy 3DAI (Euschistus heros; Bollgard II cotton, 250 ppm): 33% | No of alive insects 3DAI (Euschistus heros; Bollgard II cotton, 250 ppm): 6.8 | Relative Efficacy 1DAI (Euschistus heros; [1]): 0% | No of alive insects 1DAI (Euschistus heros; [1]): 10.0 | Relative Efficacy 3DAI (Euschistus heros; [1]): 5% | No of alive insects 3DAI (Euschistus heros; [1]): 9.5

CC(C)(C)[C@]1(O)C[C@@H]2OC(=O)C[C@@]23C(=O)O[C@@H]2OC(=O)[C@H](O)[C@]213 [Bilobalide, (3aS,5aR,8aS,9R,10aR)-9-tert-butyl-8,9-dihydroxydihydro-9H-furo[2,3-b]furo[3′,2′; 2,3]cyclopenta[1,2-c]furan-2,4,7(3H,8H)-trione]
mortality at 100 ppm (Nezara viridula; read-out: Mortality of 4th instar nymphs): 92.9% | mortality at 100 ppm (Nezara viridula; read-out: Mortality of Adults): 53.3% | Relative Efficacy 1DAI (Euschistus heros; Bollgard II cotton, 100 ppm): 78% | No of alive insects 1DAI (Euschistus heros; Bollgard II cotton, 100 ppm): 2.3 | Relative Efficacy 3DAI (Euschistus heros; Bollgard II cotton, 100 ppm): 98% | No of alive insects 3DAI (Euschistus heros; Bollgard II cotton, 100 ppm): 0.3 | Relative Efficacy 1DAI (Euschistus heros; Bollgard II cotton, 150 ppm): 75% | No of alive insects 1DAI (Euschistus heros; Bollgard II cotton, 150 ppm): 2.5 | Relative Efficacy 3DAI (Euschistus heros; Bollgard II cotton, 150 ppm): 100% | No of alive insects 3DAI (Euschistus heros; Bollgard II cotton, 150 ppm): 0.0 | Relative Efficacy 1DAI (Euschistus heros; [2]): 68% | No of alive insects 1DAI (Euschistus heros; [2]): 3.3 | Relative Efficacy 3DAI (Euschistus heros; [2]): 98% | No of alive insects 3DAI (Euschistus heros; [2]): 0.3 | Relative Efficacy 1DAI (Euschistus heros; [3]): 70% | No of alive insects 1DAI (Euschistus heros; [3]): 3.0 | Relative Efficacy 3DAI (Euschistus heros; [3]): 100% | No of alive insects 3DAI (Euschistus heros; [3]): 0.0
